Assay results reported in US20120149708A1, “MODULATORS OF VIRAL TRANSCRIPTION, AND METHODS AND COMPOSITIONS THEREWITH” (George Mason University, priority 2010, published 2012).

Legend:
HIV-1 = conditions: T-cells, monocytes, and peripheral blood mononuclear cells; cited from earlier work
HIV-1 transcription = HIV-1 transcription inhibition in T-cells and monocytes; format: cell-based; conditions: T-cells versus monocytes
3′TAR and 5′TAR microRNA = assay: Poly-A RT-PCR of TAR microRNA in TZM-bl cells with or without TSA; format: cell-based, HIV-1
Experimental: RNA was extracted 48 hrs-post drug treatment. 500 ng of RNA from the microRNA-enriched fraction was used to generate cDNA using the Quantimir kit (SBI) in order to poly adenylate small RNA species. RT reactions were performed followed by PCR in which a universal reverse primer was provided by the manufacturer. Specific microRNA forward primers are identical in sequence to the microRNA of interest. PCR products corresponding to the amplified microRNAs were separated in a 3.5% (w/v) agarose gel. The PCR products are at around 67 bp as compared with the Fermentas 1 kb DNA Plus Ladder. Increased levels of 3′TAR microRNA were produced post CR8#13 treatment.
For poly-A RT-PCR detection of microRNAs, 500 ng of RNA from the microRNA-enriched fraction was used to generate cDNA using the Quantimir kit (SBI) according to the manufacturer's protocol. Briefly, small RNA species are poly-adenylated and then reverse transcription reactions are performed with a company-provided RT primer. For PCR, a universal reverse primer is provided by the manufacturer. Specific microRNA forward primers are identical in sequence to the microRNA of interest. PCR products corresponding to the amplified microRNAs were separated in a 3.5% (w/v) agarose gel and quantified using the Kodak 1D software.
To determine whether the cdk inhibitors Flavopiridol, CR8, and CR8#13 increased levels of TAR microRNA in the TSA-treated and control TZM-bl cells total RNA was extracted from both TSA treated and control cells treated with Flavopiridol, CR8, and CR8#13 and processed for RT-PCR detection of microRNAs, specifically, for the presence of 3′TAR and 5′TAR molecules.

HIV-1 LTR-CAT reporter = assay: CAT assay of Tat-mediated transactivation in HCT116 WT and Dicer-/- cells; format: cell-based; conditions: HCT116 WT (Dicer) versus Dicer-/-; 48 hrs; Flavopiridol, CR8#13, F07#13 100 nm, 9AA 1000 nm
Experimental: Six hours later, the transfected cells were treated with DMSO, Flavopirodol (100 nm), CR8#13 (100 nm), F07#13 (100 nm), and 9AA (1000 nm). Treated cells were incubated in complete DMEM for 48 hrs at 37° C. Cells were harvested and cell extracts were used for CAT analysis. One tenth the amount of HCT116 Dicer−/−extract compared to HCT116 WT was used for CAT analysis. […] The corresponding bar graphs in A and B show values that represent the percentage of conversion of the [14C] chloramphenicol substrate in the CAT assay.
Various cells lines were transfected with the HIV-1 LTRCAT plasmid and pc-Tat to initiate the LTR transcription, and subsequently subjected to various drug treatments. After 48 hrs, cells were lysed and CAT assays were performed as previously described (Guendel et al, 2009; Van Duyne et al, 2008; Easley et al, 2010).
To evaluate the role on microRNA machinery in inhibition of viral transcription activity, HCT116 colon carcinoma cell lines that either contained a WT Dicer (HCT116 WT) or lacked the Dicer protein (HCT116 Dicer-−/−) were first transfected with the HIV-1 LTR-CAT reporter construct. The HIV-1 LTR transcription was activated with pc-Tat and following incubation for 6 hours was treated with DMSO (negative control), Flavopiridol (positive control), CR8#13, F07#13, or 9AA.
Cells were harvested 48 hrs-post treatment and processed for CAT assays (FIGS. 3A and B). […] Based on this observation the inventors hypothesize that the microRNA machinery, Dicer and Drosha, plays an inhibitory role in HIV-1 transcription.

[1] = system: HIV-1 (pNL4.3) in promonocytic U937 cells; assay: Reverse transcriptase assay of supernatants, pNL4.3 electroporated cells; format: cell-based; conditions: Flavopiridol 200 nm, CR8 100 nm, CR8#13 50 nm, 48 hours
Experimental: (§1) Jurkat T-cell and promonocytic U937 cells were electroporated with 5 μg pNL4.3 followed the next day by drug treatment of Flavopiridol (200 nm), CR8 (100 nm) or CR8#13 (50 nm). Cell supernatants were collected at 48 hours post drug treatment. Viral supernatants (10 μl) were incubated in a 96-well plate with reverse transcriptase (RT) reaction mixture overnight at 37° C., and 10 μl of the reaction mix was spotted on a DEAE Filtermat paper, washed with 5% (w/v) Na2HPO4 followed by water wash, and then dried completely. RT activity was measured in a Betaplate counter.
(§2) For electroporations, Jurkat and U937 cells were resuspended at 3 million cells in 250 μl of RPMI. Five microgram of pNL4-3 was then added to the cell suspension. Cells were pulsed a single time at 210V, 800 μF, and low resistance. Electroporated cells were immediately transferred to RPMI-1640 with L-glutamine and Penicillin/Streptomycin with 10% (v/v) FBS and plated in 6 well plates. Twenty four hours-post electroporation, cells were treated with drugs for additional 48 hrs and harvested for RT analysis. RT assays were performed as described in ((Guendel et al. 2009; Easley et al. 2010).
(§3) The present inventors examined whether Formula I, or Formula II compounds were effective inhibiting viral transcription in cell lines infected with an HIV-1 construct. Thus, Jurkat T-cells and promonocytic U937 cells were transfected with pNL4.3 and then treated with Flavopiridol, CR8 and CR8#13. Similar to monocytes, the Dicer levels are low to undetectable in promonocytic cells (FIG. 6) and was detectable only when these cells had differentiated into macrophages with PMA treatment.
(§4) Following drug treatment cell supernatants were collected and processed for exogenous reverse transcriptase (RT) levels.

[2] = system: HIV-1 (pNL4.3) in Jurkat T-cells; assay: as above; format: cell-based; conditions: Flavopiridol 200 nm, CR8 100 nm, CR8#13 50 nm, 48 hours
Experimental: as §1, §2, §3, §4

[3] = system: U1 cells (HIV-1 infected); assay: Cell viability by trypan blue exclusion, 48 hours; format: cell-based; conditions: 50 nM, 48 hrs, HIV-1 infected
Experimental: (§5) In brief, the inhibition studies were carried out as follows. HIV-1 infected cells ACH2, J1.1, OM10.1, U1 and uninfected CEM, Jurkat T-cells, and U937 were cultured in media. The appropriate inhibitor was added at a concentration of 10 μM. Cells were treated for 48 hours and cell viability was determined using trypan blue exclusion method. Results of such a screen for 19 inhibitors is shown in Table 1 where percent dead cells are indicated each drug tested.
(§6) Again HIV-1 infected and uninfected cells were treated with eighteen Formula I compounds at a drug concentration of 50 nm. Forty-eight hours after treatment, cytotoxicity was determined by trypan blue dye exclusion. Percent inhibition was calculated after obtaining the cell density for each well of the tissue culture plate at the end of 48 hrs.

[4] = system: J1.1 cells (HIV-1 infected); assay: Cell viability by trypan blue exclusion, 48 hours; format: cell-based; conditions: 50 nM, 48 hrs, HIV-1 infected
Experimental: as §5, §6

[5] = system: OM10.1 cells (HIV-1 infected); assay: Cell viability by trypan blue exclusion, 48 hours; format: cell-based; conditions: Human immunodeficiency virus 1; 50 nM, 48 hrs, HIV-1 infected; read-out: Inhibition Percentage OM10.1
Experimental: as §5, §6

[6] = system: infected ACH2, J1.1, OM10.1, U1 cells; assay: MTT assay, infected cells; format: cell-based; conditions: 50 nm and 10 μM
Experimental: (§7) FIGS. 1 and 2 show screening results of CR8 derivatives on Tat-dependent transcription HIV-1 LTR. […] TZM-bl cells were transfected with 1 ug of Tat and treated the next day with DMSO, or the indicated CR8 derivative compounds at 50 nm. 48 hrs-post drug treatment, luciferase activity of the firefly luciferase was measured with the BrightGlo Luciferase Assay and luminescence was read from a 96 well plate on an EG&G Berthold luminometer. Assays were performed in triplicate, average and standard deviations are shown.
(§8) Quantitative MTT assays were performed (FIG. 2), to further validate the cell growth inhibitory activity of certain Formula I compounds. In this study, cultured, infected ACH2, J1.1, OM10.1, U1 and uninfected CEM, Jurkat T-cells, and U937 cells were brought in contact with Formula I compounds CR8, MRT-033, and BJFP1154 (CR8#13). Cell growth inhibition study was performed at two different concentrations of the inventive compounds, a low concentration of 50 nm, and high concentration of 10 μM.

[7] = system: HIV-1 infected and uninfected cells; assay: Classification of inhibitors by effect on viability of infected versus uninfected cells; format: cell-based; conditions: 50 nM; high, moderate or poor
Description: The inhibitors were classified into three categories: high, moderate or poor, according to their effect on cellular viability in both HIV-1 infected and uninfected cells. Among the compounds tested in this study, CR8, a purine analog bearing a 2-pyridyl group para to the phenyl ring position 6 of the purine was the most promising drug candidate that killed HIV-1 infected cells, while having little or no effect on the death of uninfected cells.

CEM cells (uninfected) = assay: Cell viability by trypan blue exclusion, 48 hours; format: cell-based; conditions: 50 nM, 48 hrs
Experimental: (§9) TZM-bl cell lines were grown in Dulbecco's modified Eagle's medium supplemented with fetal bovine serum (FBS) (10%, v/v), 2 mM L-glutamine, and antibiotics (penicillin 100 U/ml, streptomycin […]) (cDMEM). HCT116 WT and HCT116 Dicer−/−cell lines were grown in McCoy's medium supplemented with FBS (10%, v/v), 2mM L-glutamine, and antibiotics (penicillin 100 U/ml, streptomycin […]). CEM, ACH2, Jurkat and U937 cells were grown in RPMI 1640 supplemented with FBS, L-glutamine, and antibiotics (penicillin 100 U/ml, streptomycin […]). All cell lines were maintained at 37° C. in 5% (v/v) CO2.
(§10) ACH2 cells are infected with HIV-1; TZM-bl cells contain a stably-integrated HIV-1 LTR-Luciferase reporter; CEM, Jurkat, and U937 cells are uninfected. Transfections were carried out using Attractene (Qiagen) lipid reagent. Cells were cultured to confluence and pelleted at 4° C. for 15 min at 3,000 rpm. The cell pellets were washed twice with 25 ml of phosphate-buffered saline (PBS) with Ca2+ and Mg2+ (Quality Biological) and centrifuged once more. Cell pellets were resuspended in lysis buffer (50 mM Tris-HCl, pH 7.5, 120 mM NaCl, 5 mM EDTA, 0.5%, v/v, NP-40, 50 mM NaF, 0.2 mM Na3VO4, 1 mM DTT, one complete protease cocktail tablet/50 ml (Roche) and incubated on ice for 20 min, with gentle vortexing every 5 min. Cell lysates were transferred to eppendorf tubes and were centrifuged at 10,000 rpm for 10 min. Supernatants were transferred to a fresh tube where protein concentrations were determined using Bio-Rad protein assay (Bio-Rad, Hercules, Calif.).
as §5, §6

U937 cells (uninfected) = assay: Cell viability by trypan blue exclusion, 48 hours; format: cell-based; conditions: Homo sapiens, U-937, 50 nM, 48 hrs, read-out: Inhibition Percentage U937
Experimental: as §9, §10, §5, §6

[8] = system: uninfected CEM, Jurkat T-cells, and U937 cells; assay: MTT assay, uninfected cells; format: cell-based; conditions: 50 nm and 10 μM
Experimental: as §7, §8

[9] = system: ACH2 cells (HIV-1 infected); assay: Cell viability by trypan blue exclusion, 48 hours; format: cell-based; conditions: Human immunodeficiency virus 1, ACH-2, 48 h, read-out: Inhibition Percentage ACH2, 50 nM, 48 hrs, HIV-1 infected
Experimental: as §9, with “CO2. […]” for “CO2.”
as §5, §6

[10] = system: Jurkat T-cells (uninfected); assay: Cell viability by trypan blue exclusion, 48 hours; format: cell-based; conditions: Homo sapiens, Jurkat, 50 nM, 48 hrs, read-out: Inhibition Percentage Jurkat
Experimental: as §9, with “CO2. […]” for “CO2.”
as §5, §6

Compound: CC[C@@H](CO)Nc1nc(NCc2ccc(-c3ccccn3)cc2)c2ncn(C(C)C)c2n1 [Cyc202]
- inhibition of HIV-1 (IC50) (HIV-1): low IC50
- inhibition of transcription (HIV-1 transcription): effectively inhibited transcription in T-cells but not in monocytes

Compound: CN1CC[C@H](c2c(O)cc(O)c3c(=O)cc(-c4ccccc4Cl)oc23)[C@H](O)C1 [Flavopiridol]
- 3′ and 5′ TAR microRNA amount (3′TAR and 5′TAR microRNA; TZM-bl cells treated with TSA for 7 days, then drug): higher amounts of both 3′ and 5′ TAR microRNA
- 3′ TAR microRNA amount (3′TAR and 5′TAR microRNA; non-TSA treated TZM-bl cells, Flavopiridol 50 nm, CR8 100 nm, CR8#13 100 nm): significantly increased amount of the 3′ TAR microRNA
- inhibition of viral transcription (CAT) (HIV-1 LTR-CAT reporter): inhibited viral transcription significantly better in cells that contained Dicer
- RT levels in supernatant [1]: able to decrease RT levels in both cell lines
- RT levels in supernatant [2]: able to decrease RT levels in both cell lines

Compound: CC[C@H](CO)Nc1nc(NCc2ccc(-c3ccccn3)cc2)n2ncc(C(C)C)c2n1.O=C(O)/C=C/C(=O)O [MRT-033, R-2-(8-isopropyl-4-(4-(pyridine-2-yl)benzylamino)pyrazolo[1,5-α]-1,3,5-triazine-2-ylamino)butan-1-ol]
- Inhibition Percentage U1 [3]: ++ (~50%)
- Inhibition Percentage J1.1 [4]: ++ (~50%)
- inhibition at 0.05 µM [5]: 75%
- cell killing of infected cells (MTT) [6]: significant cell killing of infected cells over uninfected cells
- Selectivity [7]: High
- Inhibition Percentage CEM (CEM cells (uninfected)): + (~25%)
- inhibition at 0.05 µM (U937 cells (uninfected)): 90%
- cell inhibition of uninfected cells (MTT) [8]: some cell inhibition activity of uninfected cells
- inhibition at 0.05 µM [9]: 90%
- inhibition at 0.05 µM [10]: 50%
